Columns and labels:
[1] = target: Recombinant human Cbl-b (aa 36-427) (Homo sapiens (Human), UniProt Q13191); assay: Cbl-b Biochemical Assay (TR-FRET); details: read-out: TR-FRET hCbl-b IC50
Method in brief: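 IC50 from 4-parameter fit of % inhibition (DMSO max, reference-inhibitor min), duplicate ten-point series. Compound preincubated with 6 nM Cbl-b, then Src-Zap70 (1-2.5 nM)/0.5 mM ATP reaction 60 min RT; EDTA quench with labelled UBE2D2-Ub and streptavidin-terbium, 60 min, HTRF at 520 nm.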

[2] = target: Recombinant human c-Cbl (aa 47-435) (Homo sapiens (Human), UniProt P22681); assay: c-Cbl Biochemical Assay (TR-FRET)
Description: Recombinant human c-Cbl (aa 47-435) was expressed in E. coli, purified and biotinylated in vitro. The protein was diluted to 12 nM in freshly prepared assay buffer consisting of 50 mM HEPES, pH 7.0, 100 mM NaCl, 5 mM MgCl2, 0.01% Triton-X 100, 0.01% BSA and 1 mM DTT. Recombinant human Src (aa 254-536)-[…]-Zap-70 (aa 281-297) fusion protein was expressed in E. coli and purified. Protein was diluted in assay buffer to 5-20 nM and ATP was added to 1 mM. Recombinant human UBE2D2([…]) was expressed in E. coli, purified and ubiquitinated and Bodipy labelled in vitro. Protein was diluted to 200 nM in assay buffer without MgCl2 (or Cisbio PPI buffer). Streptavidin-Terbium was added to 2 nM and EDTA to 10 mM, to provide a binding assay mix. Compounds were dissolved in DMSO and diluted to prepare a ten-point half log dilution series. 100 nl of each compound concentration was dispensed in duplicate in a 384 well black assay plate using acoustic dispensing. Wells for maximum signal controls received 100 nl of DMSO only and wells for minimum controls received 100 nl of a reference inhibitor compound at a final assay concentration of […] to produce 100% inhibition. 5 μl of diluted c-cbl enzyme was added to all wells of the assay plate and incubated at RT for 30 min. The enzyme assay was initiated by addition of 5 μl of Src-Zap/ATP mix to all wells, and the plate incubated at RT for 60-90 min. The enzyme reaction was terminated and the binding reaction was initiated by adding 10 μl of binding assay mix to all wells and incubating the plate at RT for 60 min prior to assay read. Final assay conditions consisted of 6 nM c-cbl, 2.5-10 nM Src-Zap70, 0.5 mM ATP, 1% (v/v) DMSO (enzyme reaction) and 100 nM UBE2D2([…])-Ub-FL-BODIPY, 5 mM EDTA, 1 nM Streptavidin-Tb (binding reaction). The HTRF assay signal was measured at 520 nm on an Envision plate reader, with reference signal at 485 or 620 nm. Data was normalized using maximum and minimum assay controls: % Inhibition=100-(100*((maximum control)-unknown)/(maximum control-minimum control)). A 4-parameter dose-response equation was used to fit the normalized dose-response data and derive an IC50 for test compounds.

Sequence of Recombinant human c-Cbl (aa 47-435) (P22681 47-435): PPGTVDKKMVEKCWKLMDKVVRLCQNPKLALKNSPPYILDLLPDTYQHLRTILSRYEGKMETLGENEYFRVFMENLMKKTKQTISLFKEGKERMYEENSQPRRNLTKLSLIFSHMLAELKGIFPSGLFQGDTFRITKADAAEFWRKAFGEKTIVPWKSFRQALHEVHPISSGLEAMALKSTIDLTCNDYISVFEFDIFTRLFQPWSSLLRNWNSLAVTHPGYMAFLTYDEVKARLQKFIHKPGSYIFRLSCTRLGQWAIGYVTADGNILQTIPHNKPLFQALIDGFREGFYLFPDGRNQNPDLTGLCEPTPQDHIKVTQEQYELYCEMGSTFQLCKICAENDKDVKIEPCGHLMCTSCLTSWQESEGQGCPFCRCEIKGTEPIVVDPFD
Sequence of Recombinant human Cbl-b (aa 36-427) (Q13191 36-427): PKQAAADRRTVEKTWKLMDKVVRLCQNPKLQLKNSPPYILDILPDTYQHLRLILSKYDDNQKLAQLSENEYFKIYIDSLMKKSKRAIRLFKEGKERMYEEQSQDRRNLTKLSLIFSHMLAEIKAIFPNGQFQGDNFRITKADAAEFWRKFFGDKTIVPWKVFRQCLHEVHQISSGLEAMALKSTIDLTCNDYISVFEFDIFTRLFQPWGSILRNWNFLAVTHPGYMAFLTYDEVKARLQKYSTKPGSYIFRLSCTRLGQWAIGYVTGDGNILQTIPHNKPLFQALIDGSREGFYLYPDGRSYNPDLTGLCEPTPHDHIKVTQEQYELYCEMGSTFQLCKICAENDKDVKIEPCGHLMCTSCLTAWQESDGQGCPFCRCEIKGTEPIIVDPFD

Compound | IC50 [1] [nM] | IC50 [2] [nM]
CN(Cc1cc(F)c2c(c1)C(=O)N(c1cc(-c3ccc(C#N)cc3-c3nncn3C)cc(C3CC3)n1)C2)C1CC1 [AMQ-2, 4-[2-Cyclopropyl-6-(6-{[cyclopropyl(methyl)amino]methyl}-4-fluoro-1-oxo-3H-isoindol-2-yl)pyridin-4-yl]-3-(4-methyl-1,2,4-triazol-3-yl)benzonitrile] | ≤ 200 | ≤ 200
Cn1cnnc1-c1cc(C#N)ccc1-c1cc(C2CC2)nc(N2Cc3c(F)cc(CNCCC(F)F)cc3C2=O)c1 [AME-2, 4-[2-Cyclopropyl-6-(6-{[(3,3-difluoropropyl)amino]methyl}-4-fluoro-1-oxo-3H-isoindol-2-yl)pyridin-4-yl]-3-(4-methyl-1,2,4-triazol-3-yl)benzonitrile] | ≤ 200 | ≤ 200
C[C@H](NCc1ccc2c(c1)C(=O)N(c1cc(-c3ccc(C#N)cc3-c3nncn3C)cc(C3CC3)n1)C2)C1COC1 [ANK-2, (S)-4-(2-Cyclopropyl-6-(6-(((1-(oxetan-3-yl)ethyl)amino)methyl)-1-oxoisoindolin-2-yl)pyridin-4-yl)-3-(4-methyl-4H-1,2,4-triazol-3-yl)benzonitrile] | ≤ 200 | ≤ 200
Cn1cnnc1-c1cc(C#N)ccc1-c1cc(C2CC2)nc(N2Cc3ccc([C@H]4COC[C@@H](C5CCC5)N4)cc3C2=O)c1 (stereo in doubt) [AOR-1, rel-4-(2-{6-[(3R,5S)-5-Cyclobutylmorpholin-3-yl]-1-oxo-3H-isoindol-2-yl}-6-cyclopropylpyridin-4-yl)-3-(4-methyl-1,2,4-triazol-3-yl)benzonitrile] | ≤ 200 | ≤ 200
Cn1cnnc1-c1cc(C#N)ccc1-c1cc(C2CC2)nc(N2Cc3c(Br)cc(CO)cc3C2=O)c1 [ALA-5, 4-{2-[4-Bromo-6-(hydroxymethyl)-1-oxo-3H-isoindol-2-yl]-6-cyclopropylpyridin-4-yl}-3-(4-methyl-1,2,4-triazol-3-yl)benzonitrile] | ≤ 200 | ≤ 200
Cn1cnnc1-c1cc(C#N)ccc1-c1cc(C2CC2)nc(N2Cc3c(cc(CNCCOC(F)(F)F)c(F)c3F)C2=O)c1 [ALY-2, 4-{2-Cyclopropyl-6-[4,5-difluoro-1-oxo-6-({[2-(trifluoromethoxy)ethyl]amino}methyl)-3H-isoindol-2-yl]pyridin-4-yl}-3-(4-methyl-1,2,4-triazol-3-yl)benzonitrile] | ≤ 200 | ≤ 200
CN(Cc1ccc2c(c1)C(=O)N(c1cc(-c3ccc(C#N)cc3-c3nncn3C)cc(C3CC3)n1)C2)CC1(O)CCC1 [AKP-1, 4-{2-Cyclopropyl-6-[6-({[(1-hydroxycyclobutyl)methyl](methyl)amino}methyl)-1-oxo-3H-isoindol-2-yl]pyridin-4-yl}-3-(4-methyl-1,2,4-triazol-3-yl)benzonitrile] | ≤ 200 | ≤ 200
Cn1cnnc1-c1cc(C#N)ccc1-c1cc(C2CC2)nc(N2Cc3c(F)cc(CN4CC[C@H]5OCC[C@H]54)cc3C2=O)c1 (stereo in doubt) [ANF-11, 4-[2-Cyclopropyl-6-(4-fluoro-6-{hexahydrofuro[3,2-b]pyrrol-4-ylmethyl}-1-oxo-3H-isoindol-2-yl)pyridin-4-yl]-3-(4-methyl-1,2,4-triazol-3-yl)benzonitrile] | ≤ 200 | ≤ 200
CN(Cc1ccc2c(c1)C(=O)N(c1cc(-c3ccc(C#N)cc3-c3nncn3C)cc(C3CC3)n1)C2)C1CCC1 [AOA-1] | ≤ 200 | ≤ 200
Cn1cnnc1-c1cc(C#N)ccc1-c1cc(C2CC2)nc(N2Cc3c(cc(CO)c(F)c3F)C2=O)c1 [ALX-9, 4-{2-Cyclopropyl-6-[4,5-difluoro-6-(hydroxymethyl)-1-oxo-3H-isoindol-2-yl]pyridin-4-yl}-3-(4-methyl-1,2,4-triazol-3-yl)benzonitrile] | ≤ 200 | ≤ 200
COCCN(C)Cc1cc(F)c2c(c1)C(=O)N(c1cc(-c3ccc(C#N)cc3-c3nncn3C)cc(C3CC3)n1)C2 [ANT-1, 4-[2-Cyclopropyl-6-(4-fluoro-6-{[(2-methoxyethyl)(methyl)amino]methyl}-1-oxo-3H-isoindol-2-yl)pyridin-4-yl]-3-(4-methyl-1,2,4-triazol-3-yl)benzonitrile] | ≤ 200 | ≤ 200
COc1cc(COCC2(O)CCC2)cc2c1CN(c1cc(-c3ccc(F)cc3-c3nncn3C)cc(C3CC3)n1)C2=O [AIC-11, 2-{6-Cyclopropyl-4-[4-fluoro-2-(4-methyl-1,2,4-triazol-3-yl)phenyl]pyridin-2-yl}-6-{[(1-hydroxycyclobutyl)methoxy]methyl}-4-methoxy-3H-isoindol-1-one] | ≤ 200 | ≤ 200
C[C@@H](c1ccc2c(c1)C(=O)N(c1cc(-c3ccc(C#N)cc3-c3nncn3C)cc(C3CC3)n1)C2)N1CC2(COC2)C1 [AOD-2, 4-(2-Cyclopropyl-6-{6-[(1S)-1-{2-oxa-6-azaspiro[3.3]heptan-6-yl}ethyl]-1-oxo-3H-isoindol-2-yl}pyridin-4-yl)-3-(4-methyl-1,2,4-triazol-3-yl)benzonitrile] | ≤ 200 | ≤ 200
C[C@H](NCc1ccc2c(c1)C(=O)N(c1cc(-c3ccc(C#N)cc3-c3nncn3C)cc(C3CC3)n1)C2)C1CCC1 [AOK-2, 4-{2-[6-({[(1S)-1-Cyclobutylethyl]amino}methyl)-1-oxo-3H-isoindol-2-yl]-6-cyclopropylpyridin-4-yl}-3-(4-methyl-1,2,4-triazol-3-yl)benzonitrile] | ≤ 200 | ≤ 200
COc1cc2c(cc1CNCC1CCC1)C(=O)N(c1cc(-c3ccc(C#N)cc3-c3nncn3C)cc(C3CC3)n1)C2 [AKM-2, 4-[2-(6-{[(Cyclobutylmethyl)amino]methyl}-5-methoxy-1-oxo-3H-isoindol-2-yl)-6-cyclopropylpyridin-4-yl]-3-(4-methyl-1,2,4-triazol-3-yl)benzonitrile] | 1000 to 10000 | 1000 to 10000
C[C@@H](NCc1ccc2c(c1)C(=O)N(c1cc(-c3ccc(C#N)cc3-c3nncn3C)cc(C3CC3)n1)C2)C1CCC1 [AOJ-2, 4-{2-[6-({[(1R)-1-Cyclobutylethyl]amino}methyl)-1-oxo-3H-isoindol-2-yl]-6-cyclopropylpyridin-4-yl}-3-(4-methyl-1,2,4-triazol-3-yl)benzonitrile] | ≤ 200 | ≤ 200
C[C@H](NCC1CCC1)c1ccc2c(c1)C(=O)N(c1cc(-c3ccc(C#N)cc3-c3nncn3C)cc(C3CC3)n1)C2 [AKB-1, (S)-4-(2-(6-(1-((Cyclobutylmethyl)amino)ethyl)-1-oxoisoindolin-2-yl)-6-cyclopropylpyridin-4-yl)-3-(4-methyl-4H-1,2,4-triazol-3-yl)benzonitrile] | ≤ 200 | ≤ 200
Cn1cnnc1-c1cc(C#N)ccc1-c1cc(C2CC2)nc(N2Cc3ccc(C(C)(C)N)cc3C2=O)c1 [ALK-9, 4-{2-[6-(2-Aminopropan-2-yl)-1-oxo-3H-isoindol-2-yl]-6-cyclopropylpyridin-4-yl}-3-(4-methyl-1,2,4-triazol-3-yl)benzonitrile] | ≤ 200 | ≤ 200
C[C@@H](NCC1CC1)c1ccc2c(c1)C(=O)N(c1cc(-c3ccc(C#N)cc3-c3nncn3C)cc(C3CC3)n1)C2 [AJJ-1, (R)-4-(2-Cyclopropyl-6-(6-(1-((cyclopropylmethyl)amino)ethyl)-1-oxoisoindolin-2-yl)pyridin-4-yl)-3-(4-methyl-4H-1,2,4-triazol-3-yl)benzonitrile] | ≤ 200 | ≤ 200
Cn1cnnc1-c1cc(C#N)ccc1-c1cc(C2CC2)nc(N2Cc3c(F)cc(CNCC4(F)CC4)cc3C2=O)c1 [AKZ-2, 4-{2-Cyclopropyl-6-[4-fluoro-6-({[(1-fluorocyclopropyl)methyl]amino}methyl)-1-oxo-3H-isoindol-2-yl]pyridin-4-yl}-3-(4-methyl-1,2,4-triazol-3-yl)benzonitrile] | ≤ 200 | ≤ 200
CO[C@H](C)CNCc1cc(F)c2c(c1)C(=O)N(c1cc(-c3ccc(C#N)cc3-c3nncn3C)cc(C3CC3)n1)C2 [AKV-1, 4-{2-Cyclopropyl-6-[4-fluoro-6-({[(2R)-2-methoxypropyl]amino}methyl)-1-oxo-3H-isoindol-2-yl]pyridin-4-yl}-3-(4-methyl-1,2,4-triazol-3-yl)benzonitrile] | ≤ 200 | ≤ 200

Reference: patent US12325697B2 (Nimbus Clio, Inc., priority 2021, dated 2025)
